Nc1cccnc1
solubility (mole fraction)
Settings | 288.15 K | 293.15 K | 298.15 K | 303.15 K | 308.15 K | 313.15 K | 318.15 K | 323.15 K
in acetone | 0.155 | 0.194 | 0.244 | 0.305 | 0.38 | 0.468 | 0.565 | 0.668
in n-butyl acetate | 0.432 | 0.481 | 0.537 | 0.591 | 0.65 | 0.712 | 0.77 | 0.835
